From US8106053B2, “5-phenyl-3-pyridazinone derivative” (Kowa Company, Ltd., priority 2007, dated 2012) come the findings set out here.

For test [1], the system named is C57BL/6 mice, bleomycin-induced pulmonary fibrosis. Kind of test: Bleomycin-induced pulmonary fibrosis model, amount of lung hydroxyproline. The format is in vivo. To be noted: 0.3 mg/kg orally once daily, three weeks after intratracheal bleomycin 6 mg/kg, relative to solvent-administration group. The source says: It has been reported that bleomycin administration into the trachea leads to pulmonary fibrosis. Its pathological findings including the hypertrophy and fibrosis of the alveolar wall, increased inflammatory cells, the increased amount of hydroxyproline etc. are similar to clinical idiopathic pulmonary fibrosis, and it has been often used as an experimental model of pulmonary fibrosis (Biochem. Biophys. Res. Comm. 288, 747 (2001)). To C57BL/6 mice (6-week-old, female), bleomycin hydrochloride (Bleo: NIPPON KAYAKU CO., LTD) (6 mg/kg, 25 μl/animal) was injected into the bronchus together with 500 μl of compressed air. Three weeks after administration into the trachea, the amount of hydroxyproline in the lung was determined. 0.3 mg/kg of the test substance was suspended in 0.5% carboxymethyl cellulose sodium, and orally administered once daily. The effect of the compound of the present invention was expressed in the inhibition percentage relative to the increased amount of lung hydroxyproline of the solvent-administration group, and shown in Table 3.

For test [2], the system named is PAI-1 production in human airway epithelial cells (BEAS-2B). Kind of test: Activity of inhibiting PAI-1 production using airway epithelial cells (TGF-β stimulated, ELISA). Particulars: BEAS-2B cells, 24 hours, PAI-1 in culture supernatant by ELISA. The format is cell-based. The method, then: The effect of a compound on PAI-1 production activity using airway epithelial cells was examined. This reflects PAI-1 concentration in the lung tissue related to fibrosis (lung).
The effect on the amount of PAI-1 produced using human airway epithelial cells (BEAS-2B) was examined. After 0.1 ml each of BEAS-2B cells prepared at 2×10^6 cells/ml was added to a collagen I-coated 96-well plate, preincubated for 24 hours, 0.1 ml of a medium containing […] TGF-β was added thereto and incubated for 24 hours, the amount of PAI-1 in the culture supernatant was determined using an ELISA kit. The test substance was dissolved in dimethyl sulfoxide (final concentration, 0.1% or less), and was prepared at 0.2, 1, 5 and 25 μM using a phosphate buffer, and added after preculturing. The activity of inhibiting PAI-1 production of the compound of the present invention was expressed in terms of the IC50 value and shown in Table 2.
Background: An ELISA detects its analyte on a solid surface through an enzyme-linked reagent.

Consider “5-(3-(cyclopropylmethyl)-4-methoxyphenyl)-2-methylpyridazin-3-one [Compound No. 2]”, for which the “Inhibition percentage relative to the increased amount of pulmonary hydroxyproline” value in test [1] is listed as 66%. Besides, in test [2], the IC50 (in general, the midpoint of a concentration-inhibition curve) was determined as 16.8 µM.

On to `COc1ccc(-c2cn[nH]c(=O)c2)cc1OC` [Compound No. 1, 5-(3,4-dimethoxyphenyl)pyridazin-3-one], for which the IC50 in test [2] (Homo sapiens) is 14.1 µM.

In the case of “5-(4-methoxy-3-(tetrahydrofuranyloxy)phenyl)-2-phenylpyridazin-3-one [Compound No. 9]”, in test [1], the “Inhibition percentage relative to the increased amount of pulmonary hydroxyproline” value came to 117%.

Take `COc1ccc(-c2cnn(Cc3ccc4ccccc4n3)c(=O)c2)cc1OC1CCCC1` [Compound No. 19, 5-(3-(cyclopentyloxy)-4-methoxyphenyl)-2-(2-quinolylmethyl)pyridazin-3-one]: the “Inhibition percentage relative to the increased amount of pulmonary hydroxyproline” value in test [1] came to 132%.

Consider `COc1ccc(-c2cnn(C)c(=O)c2)cc1O[C@H]1CCOC1` [Compound No. 16, (S)-5-(4-methoxy-3-(3-tetrahydrofuranyloxy)phenyl)-2-methylpyridazin-3-one], for which the IC50 in test [2] (Homo sapiens) is 23.2 µM.

The molecule `COc1ccc(-c2cnn(C)c(=O)c2)cc1OC1CCOC1` (centres unmarked) [Compound No. 12, 5-(4-methoxy-3-(3-tetrahydrofuranyloxy)phenyl)-2-methylpyridazin-3-one] registered an IC50 in test [2] (Homo sapiens) of 4 µM. This IC50 is about 5.8-fold lower than that of the molecule before.

As for `COc1ccc(-c2cnn(-c3ccccc3)c(=O)c2)cc1OC1CCCC1` [Compound No. 6, 5-(3-(cyclopentyloxy)-4-methoxyphenyl)-2-phenylpyridazin-3-one], the “Inhibition percentage relative to the increased amount of pulmonary hydroxyproline” value in test [1] amounted to 84%.

In test [2] (Homo sapiens), `COc1ccc(-c2cn[nH]c(=O)c2)cc1OC1CCOC1` (centres unmarked) [Compound No. 4, 5-(4-methoxy-3-(3-tetrahydrofuranyloxy)phenyl)pyridazin-3-one] showed an IC50 of 8.4 µM.

`COc1ccc(-c2cnn(C)c(=O)c2)cc1OC1CCCC1` [Compound No. 3, 5-(3-(cyclopentyloxy)-4-methoxyphenyl)-2-methylpyridazin-3-one]: the “Inhibition percentage relative to the increased amount of pulmonary hydroxyproline” value in test [1] was determined as 68%. This molecule also registered an IC50 in test [2] (Homo sapiens) of 5.8 µM.
